These results are taken from patent US20040121031A1, “Novel topical skin care and nutraceutical applications of Glabridin or extracts containing a defined amount (4-90%) of Glabridin” (priority 2002, published 2004).

The structures appear in SMILES notation.

This data set is described as follows: Ease of solubility in cosmetically acceptable solvents. It counts as physicochemical. The conditions noted are these: in contrast to Ursolic acid. An excerpt: In order to formulate an effective cosmetic product, the individual ingredients have to be solublized in cosmetically acceptable solvents. The following table indicates the ease of solubility of glabridin and the licorice extract in contrast to Ursolic acid, a terpenoid compound used in cosmetics for similar claims.

On to `CC1(C)C=Cc2c(ccc3c2OC[C@@H](c2ccc(O)cc2O)C3)O1` [glabridin, Glabridin], for which the ease of solubility entry is “much more easily soluble than Ursolic acid”.
